Reference: article PMC10449060 (Analysis & sensing, 2022)
Entries after “also recorded” stand apart in the source; their conditions may differ.

Key:
[1] = biological target: T1, CatC (Homo sapiens, UniProt P53634); experiment: E-64 inhibition of CatC activity; assay type: biochemical; conditions: compared with literature ~500 μM
[2] = biological target: T1, CatC; conditions: only at high concentrations; cited from earlier work
[3] = system: cathepsin F; experiment: 50 mM acetate buffer pH 5 with 1 mM EDTA and 1 mM DTT; conditions: up to 24 hours
[4] = system: cathepsin F (CatF); experiment: cathepsin F in 50 mM acetate buffer pH 5 with 1 mM EDTA and 1 mM DTT; conditions: up to 24 hours
[5] = system: cathepsin H (CatH); experiment: cathepsin H in 50 mM acetate buffer pH 5 with 1 mM EDTA and 1 mM DTT; conditions: up to 24 hours
[6] = system: cathepsin L (CatL); experiment: cathepsin L in 50 mM acetate buffer pH 5 with 1 mM EDTA and 1 mM DTT; conditions: up to 8 hours
[7] = system: cathepsin A (CatA); experiment: cathepsin A; conditions: 37°C, up to 8 hours
[8] = system: cathepsin C (CatC); experiment: cathepsin C; conditions: 37°C, up to 24 hours
[9] = system: cathepsin B (CatB); experiment: cathepsin B in 50 mM acetate buffer pH 5 with 1 mM EDTA and 1 mM DTT; conditions: up to 8 hours

T1 sequence (P53634 25-134 limits assumed): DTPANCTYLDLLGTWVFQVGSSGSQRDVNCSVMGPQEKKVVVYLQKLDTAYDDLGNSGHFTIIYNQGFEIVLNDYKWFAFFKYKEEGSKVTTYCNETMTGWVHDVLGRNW
T1 sequence (P53634 231-394 limits assumed): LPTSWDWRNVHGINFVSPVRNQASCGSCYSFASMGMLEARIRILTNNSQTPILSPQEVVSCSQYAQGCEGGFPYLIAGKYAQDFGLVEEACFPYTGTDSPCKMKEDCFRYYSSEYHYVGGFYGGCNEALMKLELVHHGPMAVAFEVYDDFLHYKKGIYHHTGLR
T1 sequence (P53634 395-463 limits assumed): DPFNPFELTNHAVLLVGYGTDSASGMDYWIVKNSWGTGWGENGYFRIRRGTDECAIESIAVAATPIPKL

Compound | not cleaved [4] | fragment found [5] | fragment found [6] | not cleaved [8] | not cleaved [9] | fragment found [7] | fragment found [9] | other results
CC(C)C[C@H](NC(=O)[C@H]1O[C@@H]1C(=O)O)C(=O)NCCCCN=C(N)N (relative stereo) [E-64, L-trans-Epoxysuccinyl-leucylamido(4-guanidino) butane] |  |  |  |  |  |  |  | E-64 inhibition of CatC activity observed by the authors [1]: activity inhibition at much-reduced concentration; concentration at which E-64 inhibits CatC [2]: ~ 500 μM
AKAKTDHGAEIVYK | no proteolytic digestion | TDHGAEIVYK; also recorded: DHGAEIVYK | IVYK and TDHGAEIVY and HGAEIVYK and GAEIVYK and AKTDHGAEIVYK and AKAKTDHGAEIVY |  |  | AKAKTDHGAEIVY, 0.5h; also recorded: AKAKTDHGAEIV; also recorded: AKAKTDHGAEI; also recorded: KTDHGAEIV; also recorded: AKTDHGAEIV; also recorded: KTDHGAEI; also recorded: AKTDHGAEI |  | not cleaved [3]: no proteolytic digestion; fragment found [8]: TDHGAEIVYK
AKAKTDHGAEIVYK (D-isoAsp variant) | no proteolytic digestion | TDHGAEIVYK | IVYK and AKTDHGAEIVYK and AKAKTDHGAEIVY | no TDHGAEIVYK after 24 h |  | AKAKTDHGAEIVY, 0.5h; also recorded: AKAKTDHGAEIV; also recorded: AKAKTDHGAEI |  | fragment found [8]: IVYK
SEMRLEKDRFSVNL |  |  |  |  |  |  | SEMRLEKDRF and SEMRLEKDR and LEKDRF and EKDRF and KDRF | fragment found [4]: SEMRLE; also recorded: KDRFSVNL; also recorded: SEMR, minor, longer time-points
SEMRLEKDRFSVNL (D-Asp variant) |  |  |  |  | no cleavage C-terminal to isomerized Asp |  | SEMRLEKDRF; also recorded: SEMRLEKDR | 
SEMRLEKDRFSVNL (L-isoAsp variant) |  |  |  |  | no cleavage C-terminal to isomerized Asp |  | SEMRLEKDRFS and SEMRLEKDRF and SEMRLEKDR and KDRF | 

Continued, in another order:

not cleaved [4] | fragment found [5] | fragment found [6] | not cleaved [8] | not cleaved [9] | Compound | fragment found [7] | fragment found [9] | other results
no proteolytic digestion | TDHGAEIVYK | IVYK and AKTDHGAEIVYK and AKAKTDHGAEIVY | no TDHGAEIVYK after 24 h |  | AKAKTDHGAEIVYK (D-Asp variant) | AKAKTDHGAEIVY, 0.5h; also recorded: AKAKTDHGAEIV; also recorded: AKAKTDHGAEI |  | 
 | TDHGAEIVYK | AKAKTDHGAEIVY and IVYK and AKTDHGAEIVYK | no TDHGAEIVYK after 24 h |  | AKAKTDHGAEIVYK (L-isoAsp variant) | AKAKTDHGAEIVY, 0.5h; also recorded: AKAKTDHGAEIV; also recorded: AKAKTDHGAEI |  | 
 |  |  |  | no cleavage C-terminal to isomerized Asp | SEMRLEKDRFSVNL (D-isoAsp variant) |  | SEMRLEKDRF; also recorded: SEMRLEKDR | 
